The values below come from patent US20240245793A1, “PSD-95 INHIBITORS AND USES THEREOF” (priority 2021, published 2024).

Structures are written as SMILES. Like-named read-outs stand apart in the source and are kept apart here. Starred links: 1 amine or outer side, 2 acyl side, 3 side chain; linkers in the order of their positions; H or OH if unused. Positions of bridges follow the written chain, without caps; N, C: chain ends. Residues, ends and D or L forms follow the SMILES beside them. Chains are numbered I, II in the order given. CO(CH2CH2O)5CH2CH2CO = O=C(CCOCCOCCOCCOCCOCCC(=O)[*:2])[*:1]

The target in one data set is PDZ1-2 of PSD-95 (Homo sapiens, UniProt P78352). The data set can be described thus: Fluorescence polarization (FP) competition assay, affinity to PDZ1-2 of PSD-95. In kind it is binding. As to conditions: mean ± SEM. The protocol: First, a saturation binding curve was obtained to determine KD values for the interaction between a fluorescent dimeric probe and PDZ1-2 of PSD-95. Increasing concentrations of PDZ1-2 (0.015-30 nM) were added to a constant concentration of the probe (0.5 nM). The fluorescence polarization (FP) of the sample was measured at excitation/emission wavelength of 635/670 nm and the generated FP values were fitted to a one site binding model using the software GraphPad Prism. […] The FP values were fitted to a one site competition (variable slope) model in GraphPad prism. The resulting IC50 values were converted to Ki values as described previously by Nikolovska-Coleska et al., Anal. Biochem., 2004, 332, 261).
In general terms: In fluorescence polarisation assays a small probe gives low polarisation when free and higher when bound to something large.

A further data set concerns the target T1, plasmin (Homo sapiens, UniProt P00747).
T1 construct: Tissue plasminogen factor (tPA), which generates plasmin from plasminogen
The data set is described as follows: In vitro plasmin stability assay. It counts as in vitro ADME. The settings on record: isolated enzyme plasmin. The protocol:
At selected time points during the incubation, the ligands were extracted from 80 μL of assay matrix by treatment with 80 μL of 50% acetonitrile (ACN). The samples were filtered and analysed by UPLC to determine the amount of ligand remaining. LC-MS analysis was performed to confirm ligand integrity and identify cleavage sites.

The mark [1] stands for this setting: OPEG4 dimers without CPP, n ≥ 3 (Table 4, FIG. 1).

T1 sequence (P00747 581-810 limits assumed, species assumed): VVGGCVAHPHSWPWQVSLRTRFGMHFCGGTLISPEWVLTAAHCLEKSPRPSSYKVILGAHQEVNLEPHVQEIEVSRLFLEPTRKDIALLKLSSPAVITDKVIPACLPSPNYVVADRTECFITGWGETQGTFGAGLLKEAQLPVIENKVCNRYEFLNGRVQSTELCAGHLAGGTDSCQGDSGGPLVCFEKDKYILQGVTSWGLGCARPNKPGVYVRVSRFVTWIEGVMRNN
T1 sequence (P00747 97-580 partner limits assumed, species assumed): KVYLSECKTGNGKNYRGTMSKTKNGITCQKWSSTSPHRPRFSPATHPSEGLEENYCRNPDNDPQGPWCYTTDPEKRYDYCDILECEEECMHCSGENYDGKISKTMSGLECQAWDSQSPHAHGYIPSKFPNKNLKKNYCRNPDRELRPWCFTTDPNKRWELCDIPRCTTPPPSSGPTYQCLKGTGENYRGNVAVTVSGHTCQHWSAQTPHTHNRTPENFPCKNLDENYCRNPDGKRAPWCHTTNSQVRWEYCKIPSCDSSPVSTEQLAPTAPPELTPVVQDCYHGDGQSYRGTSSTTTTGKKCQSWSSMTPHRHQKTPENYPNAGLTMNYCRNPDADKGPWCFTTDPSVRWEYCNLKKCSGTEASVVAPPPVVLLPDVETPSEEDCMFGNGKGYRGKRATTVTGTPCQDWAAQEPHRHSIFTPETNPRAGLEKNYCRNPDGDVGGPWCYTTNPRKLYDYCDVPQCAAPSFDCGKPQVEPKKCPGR
PDZ1-2 of PSD-95, sequence (P78352 61-249 limits assumed): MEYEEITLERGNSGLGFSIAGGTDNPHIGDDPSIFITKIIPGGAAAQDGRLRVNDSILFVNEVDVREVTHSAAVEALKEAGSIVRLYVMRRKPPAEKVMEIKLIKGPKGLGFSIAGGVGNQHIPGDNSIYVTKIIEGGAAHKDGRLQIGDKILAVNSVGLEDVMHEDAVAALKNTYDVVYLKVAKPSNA

The Ki is the equilibrium dissociation constant of an inhibitor or competing ligand from its target. Read a high Ki as a looser hold on the target. `CC(C)C[C@H](NC(=O)[C@@H](NC(=O)[C@H](CCC(=O)O)NC(=O)[C@H](CCCCN)NC(=O)CCOCCOCCOCCOCCOCCC(=O)N[C@@H](CCCCN)C(=O)N[C@@H](CCC(=O)O)C(=O)N[C@H](C(=O)N[C@@H](CC(C)C)C(=O)N[C@H](C(=O)O)C(C)C)[C@@H](C)O)[C@@H](C)O)C(=O)N[C@H](C(=O)O)C(C)C` [Compound 2, OPEG4-(KETLV)2] came in with a Ki on PDZ1-2 of PSD-95 (setting [1]) of 11.1 ± 0.3 nM.
On the same count and under the same terms, the same measure for `CC(C)[C@H](NC(=O)[C@@H](NC(=O)[C@@H](NC(=O)[C@H](CCC(=O)O)NC(=O)[C@H](CCCCN)NC(=O)CCOCCOCCOCCOCCOCCC(=O)N[C@@H](CCCCN)C(=O)N[C@@H](CCC(=O)O)C(=O)N[C@H](C(=O)N[C@H](C(=O)N[C@H](C(=O)O)C(C)C)[C@@H](C)O)[C@@H](C)O)[C@@H](C)O)[C@@H](C)O)C(=O)O` [Compound 3, OPEG4-(KETTV)2]: 14.4 ± 0.4 nM; for `CC(C)[C@H](NC(=O)[C@@H](NC(=O)[C@@H](NC(=O)[C@H](CCC(=O)O)NC(=O)[C@H](CCCCN)NC(=O)CCOCCOCCOCCOCCOCCC(=O)N[C@@H](CCCCN)C(=O)N[C@@H](CCC(=O)O)C(=O)N[C@H](C(=O)N[C@H](C(=O)N[C@H](C(=O)O)C(C)C)C(C)C)[C@@H](C)O)[C@@H](C)O)C(C)C)C(=O)O` [Compound 4, OPEG4-(KETVV)2] (I: KETVV-OH / II: KETVV-OH; linker I:N-II:N via CO(CH2CH2O)5CH2CH2CO; C-terminus assumed): 15.8 ± 1.2 nM.
In the case of `CC(=O)N[C@@H](Cc1ccc(O)cc1)C(=O)NCC(=O)N[C@@H](CCCNC(=N)N)C(=O)N[C@@H](CCCCN)C(=O)N[C@@H](CCCCN)C(=O)N[C@@H](CCCNC(=N)N)C(=O)N[C@@H](CCCNC(=N)N)C(=O)N[C@@H](CCC(N)=O)C(=O)N[C@@H](CCCNC(=N)N)C(=O)N[C@@H](CCCNC(=N)N)C(=O)N[C@@H](CCCNC(=N)N)C(=O)N(CCOCCOCCC(=O)N[C@@H](CCCCN)C(=O)N[C@@H](CCC(=O)O)C(=O)N[C@H](C(=O)N[C@@H](CC(C)C)C(=O)N[C@H](C(=O)O)C(C)C)[C@@H](C)O)CCOCCOCCC(=O)N[C@@H](CCCCN)C(=O)N[C@@H](CCC(=O)O)C(=O)N[C@H](C(=O)N[C@@H](CC(C)C)C(=O)N[C@H](C(=O)O)C(C)C)[C@@H](C)O` [Compound 11], the Ki on PDZ1-2 of PSD-95 (dimeric ligands fused to L-TAT and L-Arg9, n ≥ 3 (Table 5, FIG. 2)) was 5.4 ± 0.9 nM. For the same compound, the half-life at plasmin (read-out: T1/2) was 5.77 ± 1.75 h.
`CC[C@H](C)[C@H](NC(=O)CCOCCOCCN(CCOCCOCCC(=O)N[C@H](C(=O)N[C@@H](CCC(=O)O)C(=O)N[C@H](C(=O)N[C@@H](CC(=O)O)C(=O)N[C@H](C(=O)O)C(C)C)[C@@H](C)O)[C@@H](C)CC)C(=O)[C@H](CCCCN)NC(=O)[C@H](CO)NC(=O)[C@H](Cc1c[nH]cn1)NC(=O)[C@H](C)NC(=O)[C@H](Cc1c[nH]cn1)NC(=O)[C@H](C)NC(=O)[C@H](CCC(N)=O)NC(=O)[C@H](CCCCN)NC(=O)[C@H](CCCNC(=N)N)NC(=O)[C@@H](NC(=O)[C@H](CCCNC(=N)N)NC(=O)[C@H](CCCNC(=N)N)NC(=O)[C@H](CCCNC(=N)N)NC(=O)[C@H](CC(C)C)NC(=O)[C@@H](NC(=O)[C@@H](NC(=O)[C@H](CC(C)C)NC(=O)[C@H](CC(C)C)NC(C)=O)[C@@H](C)CC)[C@@H](C)CC)[C@@H](C)CC)C(=O)N[C@@H](CCC(=O)O)C(=O)N[C@H](C(=O)N[C@@H](CC(=O)O)C(=O)N[C@H](C(=O)O)C(C)C)[C@@H](C)O` [Compound 52] gave a half-life at 100 μM on plasmin of 0.817 ± 0.15 h.
`CC[C@H](C)[C@H](NC(=O)CCOCCOCCN(CCOCCOCCC(=O)N[C@H](C(=O)N[C@@H](CCC(=O)O)C(=O)N[C@H](C(=O)N[C@@H](CC(=O)O)C(=O)N[C@H](C(=O)O)C(C)C)[C@@H](C)O)[C@@H](C)CC)C(=O)[C@H](C)NC(=O)[C@H](CC(C)C)NC(=O)[C@H](CCCCN)NC(=O)[C@H](CC(C)C)NC(=O)[C@H](C)NC(=O)[C@H](C)NC(=O)[C@H](CCCCN)NC(=O)[C@H](CC(C)C)NC(=O)[C@H](C)NC(=O)[C@H](CCCCN)NC(=O)[C@H](CC(C)C)NC(=O)[C@H](C)NC(=O)[C@H](CC(C)C)NC(=O)[C@H](CCCCN)NC(=O)[C@H](CC(C)C)NC(=O)[C@H](C)NC(=O)[C@H](CC(C)C)NC(=O)[C@H](CCCCN)NC(C)=O)C(=O)N[C@@H](CCC(=O)O)C(=O)N[C@H](C(=O)N[C@@H](CC(=O)O)C(=O)N[C@H](C(=O)O)C(C)C)[C@@H](C)O` [Compound 54] displayed a half-life at 100 μM at plasmin of 0.217 ± 0.0667 h.
`CC[C@H](C)[C@H](NC(=O)CCOCCOCCN(CCOCCOCCC(=O)N[C@H](C(=O)N[C@@H](CCC(=O)O)C(=O)N[C@H](C(=O)N[C@@H](CC(=O)O)C(=O)N[C@H](C(=O)O)C(C)C)[C@@H](C)O)[C@@H](C)CC)C(=O)[C@H](Cc1ccccc1)NC(=O)[C@H](CCC(N)=O)NC(=O)CNC(=O)[C@H](CCCNC(=N)N)NC(=O)[C@H](CC(C)C)NC(=O)[C@H](CC(C)C)NC(=O)[C@H](CCCNC(=N)N)NC(=O)[C@H](CC(C)C)NC(=O)[C@H](Cc1ccc(O)cc1)NC(=O)[C@@H](NC(=O)[C@H](CC(C)C)NC(=O)[C@@H]1CCCN1C(C)=O)[C@@H](C)CC)C(=O)N[C@@H](CCC(=O)O)C(=O)N[C@H](C(=O)N[C@@H](CC(=O)O)C(=O)N[C@H](C(=O)O)C(C)C)[C@@H](C)O` [Compound 56] showed a half-life at 100 μM on plasmin of 15.2 h.
The same measure, in the same setting: the same measure for `CC[C@@H](C)[C@@H](NC(=O)[C@@H](CC(C)C)NC(=O)[C@H]1CCCN1C(C)=O)C(=O)N[C@H](Cc1ccc(O)cc1)C(=O)N[C@H](CC(C)C)C(=O)N[C@H](CCCNC(=N)N)C(=O)N[C@H](CC(C)C)C(=O)N[C@H](CC(C)C)C(=O)N[C@H](CCCNC(=N)N)C(=O)NCC(=O)N[C@H](CCC(N)=O)C(=O)N[C@H](Cc1ccccc1)C(=O)N(CCOCCOCCC(=O)N[C@H](C(=O)N[C@@H](CCC(=O)O)C(=O)N[C@H](C(=O)N[C@@H](CC(=O)O)C(=O)N[C@H](C(=O)O)C(C)C)[C@@H](C)O)[C@@H](C)CC)CCOCCOCCC(=O)N[C@H](C(=O)N[C@@H](CCC(=O)O)C(=O)N[C@H](C(=O)N[C@@H](CC(=O)O)C(=O)N[C@H](C(=O)O)C(C)C)[C@@H](C)O)[C@@H](C)CC` [Compound 58]: 24 h.
As to `CC[C@H](C)[C@H](NC(=O)CCOCCOCCN(CCOCCOCCC(=O)N[C@H](C(=O)N[C@@H](CCC(=O)O)C(=O)N[C@H](C(=O)N[C@@H](CC(=O)O)C(=O)N[C@H](C(=O)O)C(C)C)[C@@H](C)O)[C@@H](C)CC)C(=O)[C@@H]1CC(=O)NC[C@H](NC(C)=O)C(=O)N[C@@H](CCCCN)C(=O)N[C@@H](C)C(=O)N2CCC[C@H]2C(=O)N[C@@H](CCC(=O)O)C(=O)N[C@@H]([C@@H](C)O)C(=O)N[C@@H](C)C(=O)N[C@@H](CC(C)C)C(=O)N1)C(=O)N[C@@H](CCC(=O)O)C(=O)N[C@H](C(=O)N[C@@H](CC(=O)O)C(=O)N[C@H](C(=O)O)C(C)C)[C@@H](C)O` [Compound 60], the half-life at 100 μM at plasmin (read-out: T1/2) came out at 24 h.
Take `CC[C@H](C)[C@H](NC(=O)CCOCCOCCN(CCOCCOCCC(=O)N[C@H](C(=O)N[C@@H](CCC(=O)O)C(=O)N[C@H](C(=O)N[C@@H](CC(=O)O)C(=O)N[C@H](C(=O)O)C(C)C)[C@@H](C)O)[C@@H](C)CC)C(=O)[C@H](CCCCN)NC(=O)CCCNC(=O)CC[C@@H]1NC(=O)[C@@H](CCCNC(=N)N)NC(=O)[C@H](CCCNC(=N)N)NC(=O)[C@@H](CCCNC(=N)N)NC(=O)[C@H](CCCNC(=N)N)NC(=O)[C@H](Cc2ccc3ccccc3c2)NC(=O)[C@@H](Cc2ccccc2)NC(=O)[C@H](Cc2ccccc2)NC1=O)C(=O)N[C@@H](CCC(=O)O)C(=O)N[C@H](C(=O)N[C@@H](CC(=O)O)C(=O)N[C@H](C(=O)O)C(C)C)[C@@H](C)O` [Compound 62]: the half-life at 100 μM at plasmin amounted to 24 h.
